Here are results for 1 compound from US20260198495A1, “BINARY INSECTICIDE COMPOSITION AND USE THEREOF” (SHENYANG SINOCHEM AGROCHEMICALS R & D CO., LTD., priority 2022, published 2026).

≈ marks a conversion by molar mass, not a printed value.

Common to all, as to assay type: in vivo
Assay [1] has as its system 3rd-instar larvae of Pyrausta nubilalis Hubern. Briefly: Joint toxicity of I-72 + metaflumizone, artificial diet-pesticide film, Example 2, Table 2. The settings on record: Ostrinia nubilalis, 72 h, A = compound I-72, B = metaflumizone, read-out: LC50. As to the method: Test subject: 3rd-instar larvae of Pyrausta nubilalis Hubern, a sensitive strain reared indoors.
Experimental method: the artificial diet-pesticide film method was adopted. A standard clean 24-well culture plate was selected. 1 ml of artificial diet was added to each well. After the diet cooled and solidified, a quantitative amount of a pesticide solution was added to the culture plate using a continuous sampler, and then it was air-dried naturally in the shade. The standard test insects were introduced, with 1 insect in each well, a total of 48 insects. The treated test insects were placed in an observation room under certain conditions. The reaction of the test insects was regularly observed, and the number of dead and live insects was investigated 72 h later.
The test conditions, the preparation method of the pesticide solution, and the evaluation method (Sun Y-P) for the joint action type of the mixture were the same as those in Example 1.

The subject of assay [2] is adult Bemisia tabaci (Gennadius). The assay is described as follows: Joint toxicity of I-72 + abamectin, seedling spraying, Example 13, Table 13. The settings on record: Bemisia tabaci; adults, kidney bean seedling spraying, 72 h; A = compound I-72, B = abamectin; read-out: LC50. The source says:
Test subject: adult Bemisia tabaci (Gennadius), a sensitive strain reared indoors.
Experimental method: the spraying method was adopted. The kidney bean seedlings cultivated in the greenhouse were selected and evenly sprayed with the pesticide solution in the order from low dosage to high dosage according to the experimental design. After natural air-drying in the shade, a self-made glass cover was put on, and the test insects were introduced, with 20-30 insects for each treatment and 3 replicates. In addition, a blank control was set up. The number of dead and live insects was investigated 72 hours later. The corrected mortality rate was calculated using the Abbott's formula, and the DPS data processing software was used for statistical analysis to calculate the toxicities (LC50 values) of the single test pesticides and the mixtures under the test ratios.
The test conditions, the preparation of the pesticide solution and the evaluation method were the same as those in Example 1.
The test subject, the test method, the test conditions, the preparation of the pesticide solution and the evaluation method were the same as those in Example 12.

For another assay, the system named is Aphis craccivora nymphs. Briefly: whole plant or invertebrate. The following applies: A = compound I-72, B = sulfoxaflor, broad bean seedling spraying, 48 hours, read-out: LC50. The protocol: Test target: Aphis craccivora nymphs, a sensitive strain reared indoors.
(§1) Preparation of the pesticide solution: according to different test requirements, the test samples were accurately weighed respectively with an electronic analytical balance. The technical pesticides were dissolved in acetone, and then diluted with 0.1% Tween 80 water into a series of pesticide solutions with a certain concentration gradient according to the experimental design dosage.
Experimental method: first, broad bean seedlings with uniform and consistent Aphis craccivora were selected, with about 30-40 insects on each seedling. Then, they were evenly sprayed with the pesticide solution in the order from low dosage to high dosage according to the experimental design, with 1.5 mL of the solution for each leaf and 3 replicates for each treatment. In addition, a blank control was set up.
The treated test materials were placed in an observation room, and the temperature, humidity and illumination of the observation room could be adjusted as needed. The number of dead and live insects was investigated 48 hours later.

Assay [3] concerns Myzus persicae (Sulzer) nymphs. Briefly: Joint toxicity of I-72 + pymetrozine, Example 73, Table 73. The settings on record: A = compound I-72, B = pymetrozine, cabbage leaf spraying, 48 hours, read-out: LC50. As to the method: Test target: Myzus persicae (Sulzer) nymphs, a sensitive strain reared indoors.
as §1
Experimental method: first, cabbage leaves with uniform and consistent Myzus persicae (Sulzer) were selected, with about 30-40 insects on each leaf. Then, they were evenly sprayed with the pesticide solution in the order from low dosage to high dosage according to the experimental design, with 1.5 mL of the solution for each leaf and 3 replicates for each treatment. In addition, a blank control was set up.
The treated test materials were placed in an observation room, and the temperature, humidity and illumination of the observation room could be adjusted as needed. The number of dead and live insects was investigated 48 hours later. […] Then, the co-toxicity coefficient of each ratio was calculated using the Sun Y-P method to evaluate the mixing effect, as in Example 1.

A further assay concerns Spodoptera exigua Hübner. Briefly: Field efficacy trial of I-72 and Spodoptera exigua Hübner nucleopolyhedrovirus, Example 87, Table 87. The following applies: spraying. The protocol:
This trial was arranged in the field trial shed area of the Wuhan Vegetable Research Institute. The spraying method was adopted for pesticide application. The investigation method was to take samples at 5 points, with 2 fixed plants at each point. A total of 10 plants were investigated in each plot, and the trial was repeated four times. The population base of pests was investigated before the pesticide application, and investigations were performed 3 days and 7 days after the pesticide application. The amount of water used per mu was 30L. The calculation method for the efficacy of the test pesticides is as follows:
Test pesticides: A: Spodoptera exigua Hübner nucleopolyhedrovirus suspension with 3 billion PIBs (produced by Henan Jiyuan Baiyun Industrial Co., Ltd.); and B: compound I-72 (dissolved in acetone, 0.1% Tween 80 was added, and a 10% stock solution was prepared for use).

For the next assay, the system named is Rhizoctonia solani. The assay is described as follows: Control efficacy against Rhizoctonia solani, rice seedling potting method, Example 89, Table 89. The settings on record: rice seedlings, foliar spraying. As to the method:
Control efficacy of the composition containing the compound I-72 against Rhizoctonia solani
Test target: Rhizoctonia solani, a sensitive strain cultured indoors.
The trial adopted the seedling potting method. Test crop: rice. Experimental method: the rice seedlings were cultured to the 2-leaf stage in the greenhouse of the experimental materials. Foliar spraying treatment was performed on the crop sprayer according to the designed dosage. The test target strain was inoculated 24 hours after the pesticide treatment. All the inoculated experimental materials were cultured in a phytotron. […] The disease grading and the calculation method of the control efficacy both referred to the agricultural industry standards of the People's Republic of China.

In general, LC50 refers to the concentration lethal to half of the exposed cells or organisms. Consider `CN(C(=O)c1ccc2c(c1)OC(F)(F)O2)c1cccc(C(=O)Nc2c(Br)cc(C(F)(C(F)(F)F)C(F)(F)F)cc2OC(F)F)c1F` [Compound I-72], for which the LC50 came out at 0.67 µg/mL in assay [1], 2.97 µg/mL in assay [2], 2.52 µg/mL (≈ 3.41 µM) in the assay with Aphis craccivora nymphs and 7.96 µg/mL in assay [3]. The “Control efficacy 3 days after pesticide application” value with Spodoptera exigua Hübner (dose 6 ml per mu) was determined as 59.8%; with Spodoptera exigua Hübner (dose 9 ml per mu), 66.5%; in the assay with Spodoptera exigua Hübner (dose 12 ml per mu) it was 72.8%. For the same compound, the figures for the “Control efficacy 7 days after pesticide application” value in the assay with Spodoptera exigua Hübner (dose 6 ml per mu), in the assay with Spodoptera exigua Hübner (dose 9 ml per mu) and in the assay on Spodoptera exigua Hübner (dose 12 ml per mu) were 71.5%, 75.2% and 82.4%, respectively. Moreover, the Control efficacy was 0% with Rhizoctonia solani (5 mg/L, A = compound I-72, B = coumoxystrobin); 0% with Rhizoctonia solani (5 mg/L, A = compound I-72, B = pyraoxystrobin); 0% in the assay with Rhizoctonia solani (10 mg/L, A = compound I-72, B = coumoxystrobin); 0% in the assay with Rhizoctonia solani (10 mg/L, A = compound I-72, B = pyraoxystrobin); 0% in the assay on Rhizoctonia solani (20 mg/L, A = compound I-72, B = coumoxystrobin); 0% in the assay on Rhizoctonia solani (20 mg/L, A = compound I-72, B = pyraoxystrobin).
